# From paper PMC4332533 (Neuropharmacology, 2014)
# Where “and” joins values, the source holds several entries; their conditions need not be identical. Identical values can stand only once. Like-named read-outs stand apart in the source and are kept apart here.
# Key:
# α3Y168Cβ2D190C receptor [1] = biological target: T1, α3Y168Cβ2D190C receptor (Rattus norvegicus, UniProt P04757+P12390, D216C/Y195C); assay: Disulfide cross-linking experiments; assay type: cell-based
# α3S125Cβ2Q39C receptor [2] = biological target: T2, α3S125Cβ2Q39C receptor (Rattus norvegicus, UniProt P04757+P12390, Q65C/S152C); assay: Disulfide cross-linking experiments; assay type: cell-based
# α3Q37Cβ2A127C receptor [3] = biological target: T3, α3Q37Cβ2A127C receptor (Rattus norvegicus, UniProt P04757+P12390, A153C/Q64C); assay: Disulfide cross-linking experiments; assay type: cell-based
# α3E173Cβ2R46C receptor = α3E173Cβ2R46C receptor (Rattus norvegicus, UniProt P04757+P12390, E200C/R46C); assay: Disulfide cross-linking experiments; assay type: cell-based
# wild type α3β2 receptor [4] = biological target: T4, wild type α3β2 receptor (Rattus norvegicus, UniProt P04757+P12390); assay: Disulfide cross-linking experiments; assay type: cell-based; details: 5 min 4.4 mM H2O2 alone; 300 µM ACh ± 10 µM Mor
# α3S125Cβ2 receptor [5] = biological target: T5, α3S125Cβ2 receptor (Rattus norvegicus, UniProt P04757+P12390, S152C); assay: Disulfide cross-linking experiments; assay type: cell-based; details: H2O2 oxidation treatment (Supplemental Fig. S3C)
# wild type α3β2 receptor [6] = biological target: T4, wild type α3β2 receptor; assay: Macroscopic evoked currents, two-electrode voltage-clamp, Xenopus laevis oocytes; assay type: cell-based; details: 10 µM Mor; 300 µM ACh; control measurement before oxidation (Fig. 2)
# α3Y168Cβ2D190C receptor [7] = biological target: T1, α3Y168Cβ2D190C receptor; assay: as above; assay type: cell-based
# α3β2D190C receptor = α3β2D190C receptor (Rattus norvegicus, UniProt P04757+P12390, D216C); assay: as above; assay type: cell-based; details: for potentiation of ACh-evoked currents: 10 µM modulator (Fig. 3B)
# α3Y168Fβ2 receptor = α3Y168Fβ2 receptor (Rattus norvegicus, UniProt P04757+P12390, Y195F); assay: as above; assay type: cell-based
# α3β2D190Q receptor = α3β2D190Q receptor (Rattus norvegicus, UniProt P04757+P12390, D216Q); assay: as above; assay type: cell-based; details: mutation-modulator Ɽ from EC50s vs wild type
# α3Y168Fβ2D190Q receptor = α3Y168Fβ2D190Q receptor (Rattus norvegicus, UniProt P04757+P12390, D216Q/Y195F); assay: as above; assay type: cell-based; details: mutation-modulator Ɽ from EC50s vs wild type
# α3S125Yβ2W149A receptor = α3S125Yβ2W149A receptor (Rattus norvegicus, UniProt P04757+P12390, S152Y/W175A); assay: as above; assay type: cell-based
# α3S125Cβ2 receptor [8] = biological target: T5, α3S125Cβ2 receptor; assay: as above; assay type: cell-based
# α3β2Q39C receptor = α3β2Q39C receptor (Rattus norvegicus, UniProt P04757+P12390, Q65C); assay: as above; assay type: cell-based; details: mutation-modulator Ɽ from EC50s vs wild type; 10 µM Mor
# α3Q37Cβ2 receptor = α3Q37Cβ2 receptor (Rattus norvegicus, UniProt P04757+P12390, Q64C); assay: as above; assay type: cell-based; details: mutation-modulator Ɽ from EC50s vs wild type; 10 µM Mor
# α3β2A127C receptor = α3β2A127C receptor (Rattus norvegicus, UniProt P04757+P12390, A153C); assay: as above; assay type: cell-based; details: mutation-modulator Ɽ from EC50s vs wild type; 10 µM Mor
# α3Q37Cβ2A127C receptor [9] = biological target: T3, α3Q37Cβ2A127C receptor; assay: as above; assay type: cell-based; details: mutation-modulator Ɽ from EC50s vs wild type; 10 µM Mor
# α3β2A127Y receptor = α3β2A127Y receptor (Rattus norvegicus, UniProt P04757+P12390, A153Y); assay: as above; assay type: cell-based
# α3S125Yβ2A127Y receptor = α3S125Yβ2A127Y receptor (Rattus norvegicus, UniProt P04757+P12390, A153Y/S152Y); assay: as above; assay type: cell-based
# α3E173Aβ2 receptor = α3E173Aβ2 receptor (Rattus norvegicus, UniProt P04757+P12390, E200A); assay: as above; assay type: cell-based
# α3β2R46V receptor = α3β2R46V receptor (Rattus norvegicus, UniProt P04757+P12390, R72V); assay: as above; assay type: cell-based; details: Mor alone; relative to saturating ACh; no Hill fit possible
# α3E173Aβ2R46V receptor = α3E173Aβ2R46V receptor (Rattus norvegicus, UniProt P04757+P12390, E200A/R46V); assay: as above; assay type: cell-based; details: mutation-modulator Ɽ from EC50s vs wild type; 10 µM Mor
# wild type α3β2 receptor [10] = biological target: T4, wild type α3β2 receptor; details: Mor alone, cited from earlier work
# α3β2W149A receptor = details: Mor alone; relative to saturating ACh; no Hill fit possible; cited from earlier work
# α3S125Yβ2 receptor = α3S125Yβ2 receptor (Rattus norvegicus, UniProt P04757+P12390, S152Y); assay: Macroscopic evoked currents, two-electrode voltage-clamp, Xenopus laevis oocytes
# α3S125Cβ2Q39C receptor [11] = biological target: T2, α3S125Cβ2Q39C receptor; assay: as above
# α3Y168Cβ2 receptor = α3Y168Cβ2 receptor (Rattus norvegicus, UniProt P04757+P12390, Y195C); assay: as above; assay type: cell-based; details: mutation-modulator Ɽ from EC50s vs wild type; 10 µM Oxa
# [12] = mutation-modulator Ɽ from EC50s vs wild type, 10 µM Mor
# [13] = Mor alone, relative to saturating ACh
# [14] = 10 µM Mor, saturating nicotine, 10 µM epibatidine (Fig. 8)
# [15] = mutation-modulator Ɽ from EC50s vs wild type, 10 µM Oxa
# α3β2D190C receptor, sequence (P04757 26-499): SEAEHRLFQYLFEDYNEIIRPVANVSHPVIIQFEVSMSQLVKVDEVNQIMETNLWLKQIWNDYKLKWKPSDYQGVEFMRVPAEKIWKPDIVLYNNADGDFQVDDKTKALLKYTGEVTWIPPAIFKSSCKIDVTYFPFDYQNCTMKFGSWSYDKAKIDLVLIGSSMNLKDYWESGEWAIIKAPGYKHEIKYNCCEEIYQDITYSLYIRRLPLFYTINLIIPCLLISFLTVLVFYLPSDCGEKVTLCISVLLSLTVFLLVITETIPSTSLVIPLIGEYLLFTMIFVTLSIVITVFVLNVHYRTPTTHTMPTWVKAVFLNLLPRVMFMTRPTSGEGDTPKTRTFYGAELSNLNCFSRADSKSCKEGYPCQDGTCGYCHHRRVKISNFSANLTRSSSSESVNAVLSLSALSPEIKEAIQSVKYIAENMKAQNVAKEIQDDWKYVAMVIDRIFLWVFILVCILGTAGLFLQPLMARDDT
# α3β2D190C receptor, sequence (P12390 25-500 D216C): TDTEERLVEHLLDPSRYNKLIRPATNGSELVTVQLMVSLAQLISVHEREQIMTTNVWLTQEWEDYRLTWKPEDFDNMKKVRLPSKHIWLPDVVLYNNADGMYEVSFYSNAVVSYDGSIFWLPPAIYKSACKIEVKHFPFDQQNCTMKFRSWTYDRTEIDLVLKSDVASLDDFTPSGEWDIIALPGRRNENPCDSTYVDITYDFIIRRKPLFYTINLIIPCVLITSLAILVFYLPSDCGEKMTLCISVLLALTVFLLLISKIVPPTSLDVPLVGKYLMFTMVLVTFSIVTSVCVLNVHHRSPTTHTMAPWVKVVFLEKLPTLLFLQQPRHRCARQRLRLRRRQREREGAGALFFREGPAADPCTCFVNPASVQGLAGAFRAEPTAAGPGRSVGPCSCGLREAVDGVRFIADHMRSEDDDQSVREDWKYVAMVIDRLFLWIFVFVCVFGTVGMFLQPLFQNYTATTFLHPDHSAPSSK
# T4 sequence (P04757 26-499): as the sequence (P04757 26-499) above
# T4 sequence (P12390 25-500): as the sequence (P12390 25-500 D216C) above, with C192D counted along it
# α3β2A127Y receptor, sequence (P04757 26-499): as the sequence (P04757 26-499) above
# α3β2A127Y receptor, sequence (P12390 25-500 A153Y): as the sequence (P12390 25-500 D216C) above, with A129Y, C192D counted along it
# T3 sequence (P04757 26-499 Q64C): as the sequence (P04757 26-499) above, with Q39C counted along it
# T3 sequence (P12390 25-500 A153C): as the sequence (P12390 25-500 D216C) above, with A129C, C192D counted along it
# α3S125Yβ2W149A receptor, sequence (P04757 26-499 S152Y): as the sequence (P04757 26-499) above, with S127Y counted along it
# α3S125Yβ2W149A receptor, sequence (P12390 25-500 W175A): as the sequence (P12390 25-500 D216C) above, with W151A, C192D counted along it
# α3S125Yβ2A127Y receptor, sequence (P04757 26-499 S152Y): as the sequence (P04757 26-499) above, with S127Y counted along it
# α3S125Yβ2A127Y receptor, sequence (P12390 25-500 A153Y): as the sequence (P12390 25-500 D216C) above, with A129Y, C192D counted along it
# α3S125Yβ2 receptor, sequence (P04757 26-499 S152Y): as the sequence (P04757 26-499) above, with S127Y counted along it
# α3S125Yβ2 receptor, sequence (P12390 25-500, stated change not applied): as the sequence (P12390 25-500 D216C) above, with C192D counted along it
# T2 sequence (P04757 26-499 S152C): as the sequence (P04757 26-499) above, with S127C counted along it
# T2 sequence (P12390 25-500 Q65C): as the sequence (P12390 25-500 D216C) above, with Q41C, C192D counted along it
# T5 sequence (P04757 26-499 S152C): as the sequence (P04757 26-499) above, with S127C counted along it
# T5 sequence (P12390 25-500, stated change not applied): as the sequence (P12390 25-500 D216C) above, with C192D counted along it
# T1 sequence (P04757 26-499 Y195C): as the sequence (P04757 26-499) above, with Y170C counted along it
# T1 sequence (P12390 25-500 D216C): as the sequence (P12390 25-500 D216C) above
# α3β2D190Q receptor, sequence (P04757 26-499): as the sequence (P04757 26-499) above
# α3β2D190Q receptor, sequence (P12390 25-500 D216Q): as the sequence (P12390 25-500 D216C) above, with C192Q counted along it
# α3E173Cβ2R46C receptor, sequence (P04757 26-499 E200C): as the sequence (P04757 26-499) above, with E175C counted along it
# α3E173Cβ2R46C receptor, sequence (P12390 25-500 R46C): as the sequence (P12390 25-500 D216C) above, with R22C, C192D counted along it
# α3Y168Fβ2D190Q receptor, sequence (P04757 26-499 Y195F): as the sequence (P04757 26-499) above, with Y170F counted along it
# α3Y168Fβ2D190Q receptor, sequence (P12390 25-500 D216Q): as the sequence (P12390 25-500 D216C) above, with C192Q counted along it
# α3Y168Fβ2 receptor, sequence (P04757 26-499 Y195F): as the sequence (P04757 26-499) above, with Y170F counted along it
# α3Y168Fβ2 receptor, sequence (P12390 25-500): as the sequence (P12390 25-500 D216C) above, with C192D counted along it
# α3E173Aβ2 receptor, sequence (P04757 26-499 E200A): as the sequence (P04757 26-499) above, with E175A counted along it
# α3E173Aβ2 receptor, sequence (P12390 25-500): as the sequence (P12390 25-500 D216C) above, with C192D counted along it
# α3β2A127C receptor, sequence (P04757 26-499): as the sequence (P04757 26-499) above
# α3β2A127C receptor, sequence (P12390 25-500 A153C): as the sequence (P12390 25-500 D216C) above, with A129C, C192D counted along it
# α3β2R46V receptor, sequence (P04757 26-499): as the sequence (P04757 26-499) above
# α3β2R46V receptor, sequence (P12390 25-500 R72V): as the sequence (P12390 25-500 D216C) above, with R48V, C192D counted along it
# α3β2Q39C receptor, sequence (P04757 26-499): as the sequence (P04757 26-499) above
# α3β2Q39C receptor, sequence (P12390 25-500 Q65C): as the sequence (P12390 25-500 D216C) above, with Q41C, C192D counted along it
# α3Q37Cβ2 receptor, sequence (P04757 26-499 Q64C): as the sequence (P04757 26-499) above, with Q39C counted along it
# α3Q37Cβ2 receptor, sequence (P12390 25-500): as the sequence (P12390 25-500 D216C) above, with C192D counted along it
# α3Y168Cβ2 receptor, sequence (P04757 26-499 Y195C): as the sequence (P04757 26-499) above, with Y170C counted along it
# α3Y168Cβ2 receptor, sequence (P12390 25-500): as the sequence (P12390 25-500 D216C) above, with C192D counted along it
# α3E173Aβ2R46V receptor, sequence (P04757 26-499 E200A): as the sequence (P04757 26-499) above, with E175A counted along it
# α3E173Aβ2R46V receptor, sequence (P12390 25-500 R46V): as the sequence (P12390 25-500 D216C) above, with R22V, C192D counted along it
smiles,measurement,setting,value
"O[C@@H](CS)[C@@H](O)CS (racemic) [DTT, dithiothreitol]",reversal of oxidation-induced current decrease by reduction,α3Y168Cβ2D190C receptor [1]; subsequent DTT treatment (Supplemental Fig. S2B),completely reversed
same,reduction of the disulfide bond after oxidation,α3S125Cβ2Q39C receptor [2]; 40–100 µM DTT after H2O2 (Fig. 6),effective resistance
same,reduction of the disulfide bond after oxidation,α3Q37Cβ2A127C receptor [3]; 40 µM DTT after oxidation (Fig. 7),essentially resistant
same,change of currents upon reduction following oxidation,α3E173Cβ2R46C receptor; DTT after H2O2 (Supplemental Fig. S4),"did decrease currents, but not completely to the control level"
OO [H2O2],effect of oxidizing treatment on evoked currents,wild type α3β2 receptor [4],unaffected
same,reduction of evoked currents following oxidation,α3Y168Cβ2D190C receptor [1]; H2O2 treatment (abstract),up to 50%
same,"Ioxidation/Icontrol, final fraction of current remaining at long times",α3Y168Cβ2D190C receptor [1]; oxidation onset kinetics (Supplemental Fig. S2A),0.61 ± 0.05
same,"decrease of currents evoked by ACh, ACh + Mor and Mor alone upon oxidation","α3S125Cβ2Q39C receptor [2]; 4.4 mM H2O2 alone, 300 µM ACh, 300 µM ACh + 10 µM Mor, 10 µM Mor (Fig. 6)",62–89%
same,decrease of IACh upon oxidation,"α3S125Cβ2Q39C receptor [2]; 5 min 4.4 mM H2O2 alone, current evoked by 300 µM ACh",60%
same,decrease of IACh+Mor upon oxidation,"α3S125Cβ2Q39C receptor [2]; 5 min 4.4 mM H2O2 alone, current evoked by 300 µM ACh + 10 µM Mor",80% and 90%
same,change in evoked currents upon oxidation,α3S125Cβ2 receptor [5],no changes
same,"change of currents evoked by ACh alone, ACh + Mor and Mor alone upon oxidation","α3Q37Cβ2A127C receptor [3]; 4.4 mM H2O2 alone or with 100 µM ACh + 10 µM Mor, 1 mM ACh, 10 µM Mor (Fig. 7)",all increased
same,change of currents upon oxidation,α3E173Cβ2R46C receptor; H2O2 alone (Supplemental Fig. S4),significantly increased currents
"Cc1ccsc1C=CC1=NCCCN1C.O=C(O)C(O)C(O)C(=O)O [Mor, 1,4,5,6-tetrahydro-1-methyl-2-(2-[3-methyl-2-thienyl]ethenyl)pyrimidine, tartrate salt]",potentiation (IACh+Mor/IACh),wild type α3β2 receptor [6],greater than 2.5 fold
same,potentiation (IACh+Mor/IACh),"α3Y168Cβ2D190C receptor [7]; 10 µM Mor, 1 mM ACh, control measurement before oxidation (Fig. 2)",greater than 2.5 fold
same,R(mut-Mor),"α3Y168Cβ2D190C receptor [7]; Ɽ=EC50(WT,A)·EC50(mut,A+M)/EC50(WT,A+M)·EC50(mut,A), M = 10 µM Mor",0.52
same,potentiation of ACh-evoked currents,α3β2D190C receptor,eliminated
same,R(mut-Mor),α3β2D190C receptor; [12],10
same,decrease in EC50 for Mor modulation vs wild type,"α3Y168Fβ2 receptor; ACh + 10 µM Mor EC50 comparison, Table 1",70 fold
same,R(mut-Mor),α3β2D190Q receptor; 10 µM Mor,7.1
same,R(mut-Mor),α3Y168Fβ2D190Q receptor; 10 µM Mor,0.57
same,EC50,α3S125Yβ2W149A receptor,25 ± 9 µM
same,nH (Mor Activation),"α3S125Yβ2W149A receptor; Mor alone, Hill fit",1.01 ± 0.29 [5–6]
same,Emax (Mor Activation),α3S125Yβ2W149A receptor; [13],0.21 ± 0.02
same,R(mut-Mor),α3S125Yβ2W149A receptor; [12],7.2
same,EC50,α3S125Cβ2 receptor [8],92 ± 33 µM
same,nH (Mor Activation),"α3S125Cβ2 receptor [8]; Mor alone, Hill fit",0.54 ± 0.11 [4]
same,Emax (Mor Activation),α3S125Cβ2 receptor [8]; [13],0.028 ± 0.006
same,R(mut-Mor),α3S125Cβ2 receptor [8]; [12],1.3
same,R(mut-Mor),α3β2Q39C receptor,0.10
same,R(mut-Mor),α3Q37Cβ2 receptor,5.3
same,R(mut-Mor),α3β2A127C receptor,3.3
same,R(mut-Mor),α3Q37Cβ2A127C receptor [9],1.7
same,EC50,α3β2A127Y receptor,4.8 ± 2.4 µM
same,response to Mor alone,α3β2A127Y receptor; 10 µM Mor alone (Fig. 8),nearly negligible current
same,effect on ACh responses,"α3β2A127Y receptor; 10 µM Mor, 300 µM ACh (Fig. 8)",modestly potentiated
same,effect on responses evoked by nicotine and epibatidine,α3β2A127Y receptor; [14],inhibited
same,nH (Mor Activation),"α3β2A127Y receptor; Mor alone, Hill fit",1.08 ± 0.40
same,Emax (Mor Activation),α3β2A127Y receptor; [13],0.05 ± 0.01 [5]
same,R(mut-Mor),α3β2A127Y receptor; [12],9.4
same,EC50,α3S125Yβ2A127Y receptor,1.9 ± 0.2 µM
same,effect on ACh responses,"α3S125Yβ2A127Y receptor; 10 µM Mor, 300 µM ACh (Fig. 8)",modestly potentiated
same,effect on responses evoked by nicotine and epibatidine,α3S125Yβ2A127Y receptor; [14],inhibited
same,nH (Mor Activation),"α3S125Yβ2A127Y receptor; Mor alone, Hill fit",3.18 ± 0.63
same,Emax (Mor Activation),α3S125Yβ2A127Y receptor; [13],0.16 ± 0.01 [3]
same,R(mut-Mor),α3S125Yβ2A127Y receptor; [12],1.2
same,Ω (Mor alone activation),α3S125Yβ2A127Y receptor; thermodynamic cycle α3S125Y-β2A127Y from Mor alone EC50s,3.4
same,Emax (Mor Activation),"α3E173Aβ2 receptor; Mor alone, relative to saturating ACh, no Hill fit possible",0.16 ± 0.01 [4]
same,R(mut-Mor),α3E173Aβ2 receptor; [12],1.4
same,Emax (Mor Activation),α3β2R46V receptor,0.03 ± 0.01 [7]
same,R(mut-Mor),α3E173Aβ2R46V receptor,9.0
same,nH (Mor Activation),wild type α3β2 receptor [10]; Hill fit,3.1 ± 1.6
same,Emax (Mor Activation),wild type α3β2 receptor [10]; relative to saturating ACh,0.2 and 0.20 ± 0.04
same,EC50,"wild type α3β2 receptor [10]; read-out: EC50 (Mor Activation), Hill fit",20 ± 2 µM
same,Emax (Mor Activation),α3β2W149A receptor,0.015 ± 0.004 [3]
same,EC50,α3S125Yβ2 receptor,2.3 ± 0.7 µM
same,response to Mor alone,"α3S125Yβ2 receptor; 10 µM Mor alone (Fig. 8, Fig. 5A)",full agonist
same,effect on ACh responses,"α3S125Yβ2 receptor; 10 µM Mor, 300 µM ACh (Fig. 8)",modestly potentiated
same,effect on responses evoked by nicotine and epibatidine,α3S125Yβ2 receptor; [14],inhibited
same,decrease in EC50 for Mor modulation vs wild type,α3S125Yβ2 receptor; ACh + 10 µM Mor EC50 comparison,1000 fold
same,Emax (Mor Activation),α3S125Yβ2 receptor; [13],1.7 and 1.69 ± 0.27
same,R(mut-Mor),α3S125Yβ2 receptor; [12],0.0076
same,EC50,α3S125Cβ2Q39C receptor [11],0.53 ± 0.21 µM
same,potentiation (IACh+Mor/IACh),"α3S125Cβ2Q39C receptor [11]; 10 µM Mor, 300 µM ACh, control measurement before oxidation (Fig. 2)",greater than 2.5 fold
same,nH (Mor Activation),"α3S125Cβ2Q39C receptor [11]; Mor alone, Hill fit",0.92 ± 0.30 [4–8]
same,Emax (Mor Activation),α3S125Cβ2Q39C receptor [11]; [13],1.00 ± 0.14
same,R(mut-Mor),α3S125Cβ2Q39C receptor [11]; [12],4.5
"CN1CCCN=C1/C=C/c1cccc(O)c1 [Oxa, 1-methyl-2-(3-hydroxyphenylethenyl)-1,4,5,6-tetrahydropyrimidine with 4,4’-methylenebis(3-hydroxy-2-naphthoic acid)]",R(mut-Oxa),α3Y168Cβ2D190C receptor [7]; [15],1.9
same,R(mut-Oxa),α3Y168Cβ2 receptor,1.2
same,potentiation of ACh-evoked currents,α3β2D190C receptor,eliminated
same,R(mut-Oxa),α3β2D190C receptor; [15],19
same,R(mut-Oxa),α3Y168Fβ2 receptor; [15],1.5
same,R(mut-Oxa),α3β2D190Q receptor; 10 µM Oxa,19
same,R(mut-Oxa),α3Y168Fβ2D190Q receptor; 10 µM Oxa,1.6
Clc1ccc(C2CC3CCC2N3)cn1 (stereo not shown) [epibatidine],efficacy compared with ACh,α3S125Yβ2 receptor; saturating agonist (Fig. 8),greater efficacy
CN1CCC[C@H]1c1cccnc1 [nicotine],efficacy compared with ACh,α3S125Yβ2 receptor,greater efficacy
